Laboratory results as given in the NIST ThermoML archive (doi:10.1016/j.jct.2014.10.007).
Values joined by “and” are separate entries in the source; they are usually repeats but may differ in a detail not shown here. Identical values can stand only once. Numbers after ± are expanded uncertainties.

Test: molar heat capacity at constant pressure; xn = mol fraction of the nth substance listed
Details: 1 kPa, Liquid, Small sample (50 mg) DSC

## [Ca+2].[F-].[F-] [calcium fluoride] + [F-].[Li+]
1255 K, x1 = 0.25
  molar heat capacity at constant pressure: 98.98 ± 10 J/K/mol
1255.2 K, x1 = 0.125
  molar heat capacity at constant pressure: 70.22 ± 7.2 J/K/mol
1255.2 K, x1 = 0.375
  molar heat capacity at constant pressure: 113.91 ± 12 J/K/mol
1274.7 K, x1 = 0.25
  molar heat capacity at constant pressure: 102.2 ± 10 J/K/mol
1275 K, x1 = 0.375
  molar heat capacity at constant pressure: 118.44 ± 12 J/K/mol
1275.1 K, x1 = 0.125
  molar heat capacity at constant pressure: 82.4 ± 8.3 J/K/mol
1294.9 K, x1 = 0.25
  molar heat capacity at constant pressure: 103.71 ± 10 J/K/mol
1294.9 K, x1 = 0.375
  molar heat capacity at constant pressure: 121.83 ± 12 J/K/mol
1305.1 K, x1 = 0.125
  molar heat capacity at constant pressure: 80.92 ± 8.2 J/K/mol
1314.9 K, x1 = 0.25
  molar heat capacity at constant pressure: 96.32 ± 9.7 J/K/mol
1315.2 K, x1 = 0.375
  molar heat capacity at constant pressure: 118.21 ± 12 J/K/mol
1325.3 K, x1 = 0.125
  molar heat capacity at constant pressure: 79.47 ± 8 J/K/mol
1334.9 K, x1 = 0.5
  molar heat capacity at constant pressure: 133.92 ± 14 J/K/mol and 120.41 ± 12 J/K/mol
1335.2 K, x1 = 0.25
  molar heat capacity at constant pressure: 98.52 ± 9.9 J/K/mol
1335.2 K, x1 = 0.375
  molar heat capacity at constant pressure: 115.41 ± 12 J/K/mol
1345.4 K, x1 = 0.125
  molar heat capacity at constant pressure: 83.81 ± 8.5 J/K/mol
1354.9 K, x1 = 0.5
  molar heat capacity at constant pressure: 125.69 ± 13 J/K/mol and 133.39 ± 13 J/K/mol
1355.4 K, x1 = 0.125
  molar heat capacity at constant pressure: 82.43 ± 8.3 J/K/mol
1355.5 K, x1 = 0.375
  molar heat capacity at constant pressure: 116.94 ± 12 J/K/mol
1355.6 K, x1 = 0.25
  molar heat capacity at constant pressure: 98.96 ± 10 J/K/mol
1375.4 K, x1 = 0.5
  molar heat capacity at constant pressure: 130.29 ± 13 J/K/mol and 135.8 ± 14 J/K/mol
1375.5 K, x1 = 0.375
  molar heat capacity at constant pressure: 117.98 ± 12 J/K/mol
1375.7 K, x1 = 0.125
  molar heat capacity at constant pressure: 75.1 ± 7.6 J/K/mol
1375.7 K, x1 = 0.25
  molar heat capacity at constant pressure: 95.16 ± 9.6 J/K/mol
1395.9 K, x1 = 0.5
  molar heat capacity at constant pressure: 132.9 ± 13 J/K/mol and 134.28 ± 14 J/K/mol
1396 K, x1 = 0.125
  molar heat capacity at constant pressure: 81.03 ± 8.2 J/K/mol
1396.1 K, x1 = 0.25
  molar heat capacity at constant pressure: 106.8 ± 11 J/K/mol
1396.2 K, x1 = 0.375
  molar heat capacity at constant pressure: 111.04 ± 11 J/K/mol
1415.9 K, x1 = 0.5
  molar heat capacity at constant pressure: 130.4 ± 13 J/K/mol and 137.28 ± 14 J/K/mol
1416 K, x1 = 0.125
  molar heat capacity at constant pressure: 75.28 ± 7.6 J/K/mol
1416.1 K, x1 = 0.25
  molar heat capacity at constant pressure: 101.47 ± 10 J/K/mol
1416.1 K, x1 = 0.375
  molar heat capacity at constant pressure: 112.61 ± 11 J/K/mol
1436.2 K, x1 = 0.125
  molar heat capacity at constant pressure: 76.95 ± 7.8 J/K/mol
1436.2 K, x1 = 0.5
  molar heat capacity at constant pressure: 135.89 ± 14 J/K/mol and 130.39 ± 13 J/K/mol
1436.3 K, x1 = 0.375
  molar heat capacity at constant pressure: 112.16 ± 11 J/K/mol
1436.4 K, x1 = 0.25
  molar heat capacity at constant pressure: 102.59 ± 10 J/K/mol
1456.5 K, x1 = 0.375
  molar heat capacity at constant pressure: 120.54 ± 12 J/K/mol
1456.5 K, x1 = 0.5
  molar heat capacity at constant pressure: 134.58 ± 14 J/K/mol and 132.82 ± 13 J/K/mol
1456.6 K, x1 = 0.125
  molar heat capacity at constant pressure: 77.21 ± 7.8 J/K/mol
1456.8 K, x1 = 0.25
  molar heat capacity at constant pressure: 102.41 ± 10 J/K/mol
1476.7 K, x1 = 0.5
  molar heat capacity at constant pressure: 147.97 ± 15 J/K/mol and 127.49 ± 13 J/K/mol
1476.8 K, x1 = 0.125
  molar heat capacity at constant pressure: 83.38 ± 8.4 J/K/mol
1476.9 K, x1 = 0.375
  molar heat capacity at constant pressure: 111.58 ± 11 J/K/mol
1477 K, x1 = 0.25
  molar heat capacity at constant pressure: 101.6 ± 10 J/K/mol
1497.1 K, x1 = 0.125
  molar heat capacity at constant pressure: 90.8 ± 9.2 J/K/mol
1497.1 K, x1 = 0.375
  molar heat capacity at constant pressure: 123.99 ± 13 J/K/mol
1497.1 K, x1 = 0.5
  molar heat capacity at constant pressure: 143.74 ± 15 J/K/mol and 127.89 ± 13 J/K/mol
1497.2 K, x1 = 0.25
  molar heat capacity at constant pressure: 101.05 ± 10 J/K/mol
1517.3 K, x1 = 0.125
  molar heat capacity at constant pressure: 97.18 ± 9.8 J/K/mol
1517.4 K, x1 = 0.5
  molar heat capacity at constant pressure: 142.13 ± 14 J/K/mol and 123.38 ± 13 J/K/mol
1517.5 K, x1 = 0.375
  molar heat capacity at constant pressure: 109.29 ± 11 J/K/mol
1517.6 K, x1 = 0.25
  molar heat capacity at constant pressure: 104.18 ± 11 J/K/mol
